Results reported in patent US20250205195A1, “BENZYLOXY-BENZYLAMINYL AMINO ACID DERIVATIVE FOR ADJUSTING TSLP/TSLPR SIGNAL TRANSMISSION” (AMTIXBIO CO., LTD., priority 2021, published 2025).

Assays:
[1] = test system: DNCB-induced atopic dermatitis mice; test: DNCB-induced atopic dermatitis mouse model; type: in vivo, ICR mice; details: vs DNCB-treated group
Method: ICR mice (Orient Bio Inc., male, 4 weeks old) were used, with four mice per group. The mice were acclimatized for one week under controlled conditions (23±2° C., humidity 55±10%, 12-hour light/dark cycle, animal facility at Sungkyunkwan University) and were shaved using clippers and depilatory cream before drug treatment. Following the conventional method, 1% DNCB (2,4-dinitrochlorobenzene, Sigma-Aldrich Co., St. Louis, USA) (200 l) was applied to the dorsal area of the mice every 2 days, four times a week for one week. Subsequently, 0.5% DNCB (200 l) was applied again at 2-day intervals, eight times, to induce atopic dermatitis (Ara, J., Mol Cell Toxicol 2019). One week after DNCB treatment, signs of lesions were confirmed in all mice. Then, the mice were topically administered with the compound 27 of the present invention, dissolved in sterile water at a concentration of 1% (w/v), starting from the point of 0.5% DNCB application, once daily for two weeks. The experimental animals were supplied with powdered feed (Purina, Switzerland), and water and feed were freely available throughout the experimental period. Symptoms associated with atopic dermatitis, such as erythema, edema, scaling, crusting, lichenification, inflammation, bleeding and skin dryness, were observed and recorded according to the Scoring Atopic Dermatitis (SCORAD) index in Table 2.
Using the Mosquito Blood Collection System, blood was drawn from the retro-orbital plexus, and serum was separated. Skin tissue proteins were extracted using a homogenizer in 0.2% PBS (phosphate buffer saline). To measure the concentration of IgE, an IgE ELISA kit (Shibayagi, Japan) was used following the manufacturer's instructions, and analysis was performed using an ELISA reader. The concentrations of TNF-α, IL-4, CCL22/MDC, MMP-12, and S100A9 were measured using Luminex® Assays (R&D Systems, USA).
Skin tissues from the mouse dorsal area were separated and fixed in 10% formalin (10% Neutral Buffered Formalin, Kang Dong Trading, South Korea) for 72 hours. The fixed tissues were washed with water for about 1 hour and then processed into paraffin blocks. The paraffin blocks were sectioned into 8 m slices using a microtome, followed by staining with Harris's hematoxylin solution. Subsequently, the sections were treated with 1% HCl-alcohol, neutralized with 0.5% ammonia solution, and stained with Eosin solution. Next, dehydration was performed using alcohol and xylene, and the sections were mounted on slides using Canada balsam. FIGS. 7 (a) and (b) represent the results.
To determine the concentrations of IgE and TSLP in mouse serum, IgE ELISA kit (Shibayagi, JP) and TSLP ELISA kit (R&D systems, USA) were used following the manufacturer's instructions. As shown in FIGS. 8 (a) and (b), the serum concentrations of IgE and TSLP increased in the DNCB-treated group.
Proteins were extracted from skin tissues of atopic dermatitis mice on the dorsal area, and the levels of TNF-α, IL-1β, CCL22/MDC, IL-4, MMP-12, and S100A9 were measured using Luminex® Assays (R&D systems, USA).

p-STAT5 = test: TSLP-induced p-STAT5 in bone marrow-derived dendritic cells (BMDCs), Western blot; type: cell-based, mouse
Method: C57BL/6J mice (JA BIO, DBL-0011, male, 6-12 weeks old) were euthanized, and femurs and tibias were separated after cervical dislocation and then were stored in PBS (HyClone, Cat No. SH30028.02). After removing tissues as much as possible from femurs and tibias, both ends of the bones were cut vertically, and bone marrow was quickly collected with a 5 mL syringe (Korea Vaccine, 5 cc syringe 22 g). After centrifugation at 1800 rpm for 3 minutes, the supernatant was discarded, 10 mL PBS was added to resuspend the cells, and the mixture was filtered through a 100 µm cell strainer. […]
The obtained BMDCs were pre-treated with compound 27, Jak1 inhibitor (Filgotinib, Selleck, Cat No. JS7605), or Jak2 inhibitor (SD-1029, Sigma, Cat No. 573098) 30 minutes or 1 hour prior to treatment. […] After quantifying the protein using the BCA protein assay kit (Thermo, Cat No. 23225), 5×SDS-PAGE loading buffer (Biosesang, Cat No. SF2002-110-00) was added, boiled for 5 minutes at 103° C., and stored at −20° C. […]
BR1706516)] for 2 hours at room temperature. After washing with TBS-T, the membrane was incubated with ECL solution (Thermo, Cat No. 32209), and protein bands were detected using the iBright imaging system (Invitrogen, Model No. FL1500). Each band intensity was measured using ImageJ software (version 1.38; National Institutes of Health), and the pSTAT5/STAT ratio was calculated. […]

## CCC(NC)C(=O)NCc1ccc(OCc2ccc(C(F)(F)F)cc2)cc1 (racemic) [Compound 27, (R)/(S)-2-(methylamino)-N-(4-((4-trifluoromethyl)benzyl)oxy)benzyl)butanamide]
[1]; Luminex
  CCL22/MDC level in skin tissue: significant decrease
  IL-1β level in skin tissue: significant decrease
  IL-4 level in skin tissue: significant decrease
  MMP-12 level in skin tissue: significant decrease
  S100A9 level in skin tissue: significant decrease
  TNF-α level in skin tissue: significant decrease
[1]; topical 1% (w/v), once daily, two weeks
  symptoms of dermatitis (SCORAD index): significant reduction
[1]; topical 1% (w/v)
  expression of inflammatory cells (H&E, skin tissue): significant decrease
  serum IgE concentration: decrease
  serum TSLP concentration: decrease
  thickness of the epidermal layer: significant reduction
p-STAT5; 2 pM, compared to the TSLP-treated group
  reduction in p-STAT5: 51%
p-STAT5; BMDCs, TSLP treatment
  p-STAT5 (pSTAT5/STAT ratio): significantly reduced
